Measurements from patent US11117888B2, “Irreversible inhibitors of pyruvate kinase M2 and the use thereof” (China Medical University, priority 2020, dated 2021).

How the values were obtained:
Type in all cases: cell-based, human
[1] = tested on: lung cancer cell lines; assay: MTT cell viability assay, panel of lung cancer cell lines
From the text: Cell lines, cell culture, biochemical reagents, and antibodies. MiaPaCa-2, AsPC-1, and Panc-1 human pancreatic cancer cells, MCF-7 and MDA-MB-231 breast cancer cells, SCC4 and SCC2059 oral cancer cells, PC-3 and LNCaP prostate cancer cells, H157, H460, H1975, PC-9 and H1650 lung cancer cells were obtained from the American Type Culture Collection (ATCC, Manassas, Va.). All these cells were maintained in recommended growth medium (RPMI 1640 or DMEM) supplemented with 10% fetal bovine serum (FBS) (Invitrogen, Carlsbad, Calif., USA) and antibiotics at 37° C. in a humidified incubator containing 5% CO2. For SILAC experiments, PC-9 cells were grown in SILAC DMEM medium (Thermo Fisher) supplemented with 10% dialyzed FBS and 100 μg/mL each of unlabeled L-arginine and L-lysine (light medium) or ^13C/^15N stable isotope-labeled L-arginine and L-lysine (heavy medium). […]
Cell viability assays. Drug effects on cell viability was assessed by 3-(4,5-dimethylthiazol-2-yl)-2,5-diphenyltetrazolium bromide ([…]) assays. […] The medium was then removed from each well and replaced with DMSO to dissolve the reduced MTT dye for subsequent colorimetric measurement of absorbance at 560 nm. Cell viabilities are expressed as percentages of viable cells relative to the corresponding vehicle-treated control group.

[2] = tested on: PC-9 cells; assay: ABPP-SILAC proteomic target identification; conditions: 1 μM, 1 hour, LC-MS/MS
Experimental: As part of our effort to identify compound 1's target(s), we embarked on the use of compound 2 as an ABPP probe to conduct SILAC-based proteomic analysis. […] In this experiment, PC-9 cells were grown in cultural medium supplemented with unlabeled L-arginine and L-lysine (light medium) versus ^13C/^15N stable isotope-labeled L-arginine and L-lysine (heavy medium), generating two populations of cells (light versus heavy cells). Heavy PC-9 cells were then exposed to the ABPP (1 μM) for 1 hour to allow intracellular labelling of target proteins, while light cells were treated with DMSO vehicle under the same condition. […] These peptide mixtures were analyzed by liquid chromatography-tandem mass spectrometry (LC-MS/MS), and the resulting data were searched against various primary sequence databases by using the Mascot search engine. […]
SILAC analysis and click chemistry. […] The supernatant was transferred to a 1.5 mL microfuge tube, and the protein concentration was determined by the BCA protein assay (Thermo Fisher Scientific) and then normalized to 1 mg/mL. […]
Proteomic data analysis. Putative target proteins of compound 1 and protein-protein interaction network were identified and analyzed, respectively, through a web-based search of the STRING database (https://string-db.org/). […]

[3] = tested on: PKM2, EGFR, Stat3, β-catenin in PC-9 cells; assay: Immunoblot analysis of oncogenic effectors in PC-9 cells; conditions: Western blot, 24 hours
Experimental: Immunoblot analysis. PC-9 cells were seeded into 6 cm dish at a concentration of 5×10^5 cells/mL. After 24 hours, cells were treated with 0-1 μM compound 1 or DMSO alone for 24 hours. The cells were harvested at 24 hours, and protein extractions were carried out. The protein lysate was subjected to 10% SDS-PAGE and transferred to a nitrocellulose membrane (GE Healthcare Life Sciences). Protein expression was analyzed by Western blotting using primary antibodies against PKM2, EGFR, p-STAT3, STAT3, p-β-catenin (Cell Signaling Technology), β-catenin (Santa Cruz Biotechnology) and β-actin (Sigma-Aldrich), followed by incubation with horseradish peroxidase-conjugated secondary (Jackson ImmunoResearch Laboratories). Specific proteins were detected by chemiluminescence using ECL Plus Western Blotting Detection Reagents (GE Healthcare Biosciences).

[4] = tested on: pyruvate kinase activity in PC-9 cells; assay: Pyruvate kinase activity assay in PC-9 cells; conditions: 0.25 μM, 6 hours, relative to vehicle control
Experimental: Pyruvate kinase activity assays. PC-9 cells were seeded into 6 cm dishes at a concentration of 5×10^5 cells/mL. After 24 hours, cells were treated with 0.25 μM compound 1 or DMSO for 6 hours. The pyruvate kinase activity of compound 1-treated PC-9 and vehicle control cells was measured by using a commercial colorimetric assay kit from BioVision (Milpitas, Calif., USA) according to the manufacturer's protocol. In addition, to verify the specificity of compound 1 toward PKM2 versus PKM1, the inhibition of the kinase activity of recombinant PKM1 (SRP0415, Sigma-Aldrich) and recombinant PKM2 (SAE0021, Sigma-Aldrich) by compound 1 was conducted using the aforementioned assay kit.

SMILES | antiproliferative effect in lung cancer cell lines [1] | protein targets labelled by ABPP probe [2] | expression and/or phosphorylation of PKM2, EGFR, Stat3, β-catenin [3] | pyruvate kinase activity in cells [4]
C#CCOc1ccc(-c2ccc(-c3cc(CCC(=O)NC)nn3-c3ccc(NC(=O)C#C)cc3)cc2)cc1 [compound 2, N-(4-(3-(3-(Methylamino)-3-oxopropyl)-5-(4′-(prop-2-yn-1-yloxy)-[1,1′-biphenyl]-4-yl)-1H-pyrazol-1-yl)phenyl)propiolamide] | pattern of growth inhibition similar to that of compound 1 | the protein with the highest matching score was the 58 kDa PKM2 |  | 
C#CC(=O)Nc1ccc(-n2nc(CCc3nnc(C)o3)cc2-c2ccc(-c3ccc(C(F)(F)F)cc3)cc2)cc1 [compound 3] | high antiproliferative potencies |  | high efficacy in suppressing the phosphorylation/expression of various oncogenic biomarkers | equipotent in suppressing PKM2 kinase activity relative to compound 1
